Experimental data taken from article PMC8773213, “In Vitro Anticancer Activity and Mechanism of Action of an Aziridinyl Galactopyranoside” (Biomedicines, 2021).

Key:
[1] = test system: BJ-SV40T (SV40T-transformed BJ-hTERT cells); assay: Resazurin cell viability assay, BJ-SV40T; assay type: cell-based; conditions: Homo sapiens, 72 h, read-out: IC50 (Mean ± SEM, µM), BJ-SV40T
Protocol: (§1) Exponentially growing cells were seeded in 96-well plates and allowed to attach and grow for 24 h. The cells were then treated with increasing concentrations of the tested drugs. At the end of the treatment period, cell viability was measured with the MTT assay or the resazurin assay, two widely used techniques.
(§2) The resazurin assay is a redox-based colorimetric/fluorometric technique based on the ability of viable cells to reduce the blue compound resazurin into the pink, fluorescent and soluble product resorufin. The amount of resorufin produced is generally proportional to the number of living cells. In this assay, 24 h after seeding, cells were exposed to the tested drugs for 72 h. Then 100 μL resazurin in medium was added to each well (final concentration of 10 μg/mL) and, one hour later the fluorescence intensity was measured at 530/590 nm (excitation/emission) using a fluorescence microplate reader.
(§3) In both assays, cell viability was expressed as percentage compared to untreated cells. Results were expressed as the means ± standard error of the mean (SEM). All data are from at least three independent experiments.

[2] = test system: NB4 (Human acute promyelocytic leukemia cells); assay: Resazurin cell viability assay, NB4; assay type: cell-based; conditions: 72 h, read-out: IC50 (Mean ± SEM, µM), NB4
Protocol: as §1, §2, §3

[3] = test system: U2OS (Human osteosarcoma cells); assay: Resazurin cell viability assay, U2OS; assay type: cell-based; conditions: 72 h, read-out: IC50 (Mean ± SEM, µM), U2OS
Protocol: as §1, §2, §3

[4] = test system: MRC-5 (Human lung non-malignant cells); assay: Resazurin cell viability assay, MRC-5; assay type: cell-based; conditions: MRC5, 72 h, read-out: IC50 (Mean ± SEM, µM), MRC-5
Protocol: as §1, §2, §3

[5] = test system: BJ-RASV12 (HRASV12-transformed BJ-SV40T cells); assay: Resazurin cell viability assay, BJ-RASV12; assay type: cell-based, human; conditions: 72 h
Protocol: as §1, §2, §3

[6] = test system: BJ-hTERT (hTERT-immortalized skin non-malignant BJ cells); assay: Resazurin cell viability assay, BJ-hTERT; assay type: cell-based; conditions: Homo sapiens, 72 h, read-out: IC50 (Mean ± SEM, µM), BJ-hTERT
Protocol: as §1, §2, §3

[7] = test system: SW480 (Human colon adenocarcinoma cells); assay: Resazurin cell viability assay, SW480; assay type: cell-based; conditions: 72 h, read-out: IC50 (Mean ± SEM, µM), SW480
Protocol: as §1, §2, §3

[8] = test system: VH10 (Human skin non-malignant cells); assay: Resazurin cell viability assay, VH10; assay type: cell-based; conditions: 72 h, read-out: IC50 (Mean ± SEM, µM), VH10
Protocol: as §1, §2, §3

[9] = test system: cancer cell lines versus MRC-5 and VH10 normal cell lines; assay: Resazurin assay, panel of cancer cells versus normal cells; assay type: cell-based, human; conditions: 72 h
Protocol: as §1, §2, §3
Next, we evaluated the cytotoxic activity of AzGalp in cancer cell lines derived from solid tumors (HeLa, PC3, U2OS, HepG2 and SW480) and from hematological malignancies (NB4 and HL-60). To study the selectivity against cancer cells, MRC-5 and VH10 cells were used as normal cell lines; 5-FU was used as a positive control. All cells were treated with AzGalp or 5-FU for 72 h and cell viability was evaluated with the resazurin assay. This assay was used to determine cell viability instead of the MTT assay because the HL60 and NB4 cell lines grow in suspension. […] Leukemia cell lines were approximately 15 times more sensitive than normal cells to the cytotoxicity of our aziridine.

[10] = test system: HepG2 (Human hepatocellular carcinoma cells); assay: Resazurin cell viability assay, HepG2; assay type: cell-based; conditions: 72 h, read-out: IC50 (Mean ± SEM, µM), HepG2
Protocol: as §1, §2, §3

[11] = test system: HeLa (Human cervical carcinoma cells); assay: Resazurin cell viability assay, HeLa; assay type: cell-based; conditions: 72 h, read-out: IC50 (Mean ± SEM, µM), HeLa
Protocol: as §1, §2, §3

[12] = test system: HL-60 (Human acute promyelocytic leukemia cells); assay: Resazurin cell viability assay, HL-60; assay type: cell-based; conditions: 72 h, read-out: IC50 (Mean ± SEM, µM), HL-60
Protocol: as §1, §2, §3

[13] = test system: PC3 (Human prostate cancer cells); assay: Resazurin cell viability assay, PC3; assay type: cell-based; conditions: 72 h, read-out: IC50 (Mean ± SEM, µM), PC3
Protocol: as §1, §2, §3

A549 cells [14] = assay: Glycolysis inhibition (glucose consumed, lactate produced); assay type: cell-based, human; conditions: A549, 8 h
Protocol: Inhibition of glycolysis was determined by measuring glucose consumed (initial product of glycolysis) and lactate produced (final product of glycolysis) in untreated and treated cells. Cells were seeded in 6-well plates at a density of 10^6 cells/well and were allowed to attach for a few hours before treatment with the tested compounds for 8 h. After treatment, medium was recollected and glucose and lactate concentrations were determined using the Accutrend® Plus analyzer together with Accutrend glucose strips and BM-Lactate strips (Roche Diagnostics, Barcelona, Spain). After calibrating the instrument with glucose and lactate calibration strips, test strips were used to determine glucose and lactate levels through colorimetric oxidase mediator reactions according to the manufacturer’s instructions. The results are expressed as percentage of glucose consumption and percentage of lactate production in relation to untreated cells. Data were averaged from two independent experiments and shown as mean ± SEM.

A549 cells [15] = assay type: cell-based; conditions: A549, 48 h, antioxidant added 1 h before; MTT
Protocol: as §1
In the case of the MTT assay, this technique detects viable cells using the ability of these cells to reduce the yellow tetrazolium MTT to an insoluble colored formazan product. Subsequently, this product was solubilized and analyzed by spectrophotometry. Dead cells cannot reduce the MTT into the colored formazan product. Briefly, 24 h after plating, cells were treated with the tested compounds for 48 h; except in experiments with DNA repair-proficient and -deficient cell lines, in which cells were only exposed for 24 h to drugs and allowed to grow for an additional 48 h in drug-free medium to allow them to repair possible DNA damage induced by the tested drugs. After the treatment period, the medium was removed, the cells were washed once with PBS and 125 μL MTT (1 mg/mL in medium) was added to each well. Plates were incubated for 2–4 h and then 80 μL 20% SDS in 0.02 M HCl was added to each well. Finally, plates were incubated overnight at 37 °C and optical densities were measured at 540 nm using an absorbance spectrophotometer microplate reader.
as §3

AA8 cells = assay: Comet assay (DNA damage); assay type: cell-based, Chinese hamster; conditions: 1 mM, 4 h
Text: The single cell gel electrophoresis assay, also known as comet assay, is a widely used technique for the study of levels of damage in cellular DNA. In this assay, individual cells embedded in agarose are lysed, electrophoresed, stained with a fluorescent dye and examined under an epifluorescence microscope. […] The quantity of DNA present in the tail is indicative of DNA damage. This assay has been described in detail by Singh et al.. We followed this protocol with minor modifications previously described. Briefly, standard slides were immersed in 1% normal melting agarose at 55 °C, left to allow the agarose to solidify and kept at 4 °C until use. Cells were seeded in 6-well plates, allowed to grow for 24 h and then cells were exposed to AzGalp or CTP (positive control) for 4 h. At the end of the treatment, cells were harvested by trypsinization, washed with PBS and resuspended in PBS at a concentration of approximately 1 million cells/mL; 10 µL cell suspension was mixed with 85 μL of low-melting agarose (LMA) at 37 °C and the mixture was quickly added to the slides with the first layer of agarose, spread using a coverslip and kept at 4 °C for 8 min to allow the LMA to solidify. The coverslips were then removed and another layer of 100 μL of LMA at 37 °C was added, covered with a coverslip and allowed to solidify at 4 °C for 8 min. After removing the coverslips, the slides were incubated in the dark for 1 h at 4 °C in a lysis buffer (pH 10.0) containing 0.25 M NaOH, 10% DMSO, 1% Triton X-100, 10 mM Tris-HCl, 100 mM Na2-EDTA and 2.5 M NaCl. Next, alkaline denaturation with electrophoretic buffer (300 mM NaOH and 1 mM Na2-EDTA) was carried out in an electrophoresis chamber for 20 min and then electrophoresis was performed at 1 V/cm for 20 min. […] DNA damage levels were quantified for each cell and expressed as percent of DNA in the tail and as the tail moment (defined as the product of the tail length and the fraction of total DNA in the tail). The results were averaged from two independent experiments and expressed as mean ± SEM.

UV4 and AA8 cells = assay: Clonogenic survival assay; assay type: cell-based, Chinese hamster; conditions: 3 µM, 24 h, then colonies in drug-free medium
Protocol: Cell survival after treatment was determined by clonogenic assay. AA8 and UV4 cells were seeded in 6 cm Petri dishes 4 h prior to treatment for 24 h. After that, drugs were removed and cells were allowed to form colonies for eight days. The colonies were then stained with 0.4% methylene blue in methanol for 15 min. Surviving colonies made up of more than 50 cells per colony were counted. Results were represented as percentage of survival referred to untreated cells.

## O=c1[nH]cc(F)c(=O)[nH]1 [5-FU, 5-fluorouracil, reference compound]
[1]
  IC50: 5.4 ± 0.7 µM
[2]
  IC50: 2.5 ± 0.3 µM
[3]
  IC50: 6.4 ± 0.7 µM
[4]
  IC50: > 1000 µM
[5]; resazurin
  Sensitivity of BJ-RASV12 malignant cells relative to BJ-hTERT non-malignant cells: did not observe this selectivity
[5]; Homo sapiens, resazurin assay, read-out: IC50 (Mean ± SEM, µM), BJ-RASV12
  IC50: 3 ± 1.4 µM
[6]
  IC50: 2.4 ± 0.5 µM
[7]
  IC50: 2.9 ± 1.3 µM
[8]
  IC50: > 1000 µM
[9]; HL60 and NB4, concentrations between 10 and 100 µM
  Viability of leukemia cells: higher than 20%
[9]; MRC-5 and VH10, concentrations between 10 and 100 µM
  Viability of normal cells: showed cytotoxicity against these cells
[10]
  IC50: 0.6 ± 0.3 µM
[11]
  IC50: 66.3 ± 27 µM
[12]
  IC50: 0.9 ± 0.8 µM
[13]
  IC50: 1.5 ± 0.3 µM

## O=C(O)C(Cl)Cl [DCA, dichloroacetate, reference compound]
A549 cells [14]
  Glycolytic activity (glucose consumption and lactate production): reduced lactate production and glucose consumption

## OO [H2O2, hydrogen peroxide, reference compound]
A549 cells [15]
  Effect of MnTMPyP on cytotoxicity: decreased in the presence of the three antioxidants
  Effect of NAC on cytotoxicity: decreased in the presence of the three antioxidants
  Effect of catalase on cytotoxicity: decreased in the presence of the three antioxidants

## COc1cc(C(=O)O)cc(OC)c1O [Syringic acid, reference compound]
AA8 cells
  DNA damage in comet assay: does not induce DNA damage

## COc1cc([C@@H]2c3cc4c(cc3[C@@H](O[C@@H]3O[C@@H]5CO[C@@H](C)O[C@H]5[C@H](O)[C@H]3O)[C@H]3COC(=O)[C@H]23)OCO4)cc(OC)c1O [etoposide, reference compound]
UV4 and AA8 cells
  Cell survival, UV4 versus AA8 (clonogenic assay): UV4 cells were more sensitive
